Source: US6743796B2, “Piperazinyl-isatins” (Wyeth, priority 2001, dated 2004)
Counter-ions that a name gives are not always drawn.

Assays:
dopamine D2 receptor = experiment: Affinity for the dopamine D2 receptor: [3H]-spiperidone binding in homogenized limbic brain tissue; conditions: ratio of IC50 D2 Spiper to IC50 D2 Quin. (LowAg/HighAg)
Procedure: High affinity for the dopamine D2 receptor was established by the standard pharmacological test procedure of Fields, et al., Brain Res., 136, […] (1977) and Yamamura et al., ed., Neurotransmitter Receptor Binding, Raven Press, N.Y. (1978) wherein homogenized limbic brain tissue is incubated with [^3H]-spiperidone at various concentrations of test compound, filtered washed, and shaken with Hydrofluor scintillation cocktail (National Diagnostics) and counted in a Packard 460 CD scintillation counter.

[1] = target: T1, dopamine autoreceptor (D2 Quin.) (Rattus norvegicus, UniProt P61169); experiment: Affinity for the dopamine autoreceptor: [3H]-quinpirole binding in homogenized rat striatal brain tissue; conditions: rat striatal brain tissue (high-affinity agonist state)
T1 construct: from tissue; host or cells: rat striatal brain tissue homogenate
Procedure: Affinity for the dopamine autoreceptor was established by a modification of the standard pharmacological test procedure of Seemen and Schaus, European Journal of Pharmacology 203: 105-109, 1991, wherein homogenized rat striatal brain tissue is incubated with [^3H]-quinpirole (Quin.) at various concentrations of test compound, filtered, washed and counted in a Betaplate scintillation counter.

T1 sequence (P61169 whole entry): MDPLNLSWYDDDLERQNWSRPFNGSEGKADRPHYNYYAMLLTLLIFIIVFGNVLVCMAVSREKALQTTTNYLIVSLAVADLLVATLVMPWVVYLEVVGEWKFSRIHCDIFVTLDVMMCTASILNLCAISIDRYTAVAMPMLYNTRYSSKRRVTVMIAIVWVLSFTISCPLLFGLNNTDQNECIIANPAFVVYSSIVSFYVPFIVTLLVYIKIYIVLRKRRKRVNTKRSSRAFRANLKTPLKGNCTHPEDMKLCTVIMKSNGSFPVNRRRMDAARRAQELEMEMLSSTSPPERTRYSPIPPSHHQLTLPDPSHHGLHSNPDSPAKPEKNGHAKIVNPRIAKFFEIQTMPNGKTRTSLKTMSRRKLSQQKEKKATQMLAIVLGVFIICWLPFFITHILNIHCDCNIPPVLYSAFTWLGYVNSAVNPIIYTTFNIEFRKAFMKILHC

| Compound | melting point [°C] | Ratio antagonist (dopamine D2 receptor) | IC50 [1] [nM] |
| --- | --- | --- | --- |
| O=C1Nc2cccc(N3CCN(Cc4ccccc4)CC3)c2C1=O (as salt: fumarate) (hydrate or solvate) [Example V, 4-(4-Benzyl-piperazin-1-yl)-1H-indole-2,3-dione] | 118 to 120 |  |  |
| O=C1Nc2cccc(N3CCN(Cc4ccccc4)CC3)c2C1=O [Example V, 4-(4-Benzyl-piperazin-1-yl)-1H-indole-2,3-dione] |  | 149 | 0.57 ± 0.2 |
